The source of these data is ChEMBL document CHEMBL5113475, “10-Alkoxy-anthracenyl-isoxazole analogs have sub-micromolar activity against a Glioblastoma multiforme cell line” (Bioorg Med Chem, 2022).

In one experiment the test system is SNB-19. In words: Antitumor activity against human SNB-19 cells assessed as cell growth inhibition measured after 24 hrs by MTT colorimetric assay. In kind it is functional, cell-based. As to conditions: SNB-19, 24 h. A general note: Tetrazolium assays rely on reduction of a dye to a coloured formazan, in cell work by metabolically active cells.
In a further experiment the test system is Quadruplex DNA. Briefly: Stabilization of c-Myc G-quadruplex DNA (unknown origin ) assessed as increase in melting temperature at 2 equivalent by CD spectroscopy. As to conditions: dose 2.0 equiv. In kind it is nucleic-acid assay.

The structures appear in SMILES notation. The source made the active and inactive calls. The rule behind the calls is not given here.

Turning to `Cc1onc(-c2c3ccccc3c(Oc3ccccc3)c3ccccc23)c1C(=O)Nc1cc(C(=O)N(CCCN(C)C)CCCN(C)C)n(C)c1`, in the experiment on SNB-19, the IC50 amounted to 1.03 µM.
As for `Cc1onc(-c2c3ccccc3c(Oc3ccc(-c4ccccc4)cc3)c3ccccc23)c1C(=O)Nc1cc(C(=O)N(CCCN(C)C)CCCN(C)C)n(C)c1`, the result in the experiment with Quadruplex DNA was Active. Besides, in the experiment on SNB-19, the IC50 turned out to be 0.58 µM.
On to `Cc1onc(-c2c3ccccc3c(Oc3ccc4ccccc4c3)c3ccccc23)c1C(=O)Nc1cc(C(=O)N(CCCN(C)C)CCCN(C)C)n(C)c1`, for which the IC50 in the experiment on SNB-19 came to 3.1 µM.
In the case of `COc1ccc2c(OC)c3ccccc3c(-c3noc(C)c3C(=O)Nc3cc(C(=O)N(CCCN(C)C)CCCN(C)C)n(C)c3)c2c1Cl`, the IC50 with SNB-19 was determined as 12.6 µM.
Same read-out and setting: the result for `Cc1onc(-c2c3ccccc3c(Oc3cccc4ccccc34)c3ccccc23)c1C(=O)Nc1cc(C(=O)N(CCCN(C)C)CCCN(C)C)n(C)c1` reads 1.07 µM; that for `COc1ccc2c(OC)c3ccccc3c(-c3noc(C)c3C(=O)Nc3cc(C(=O)N(CCCN(C)C)CCCN(C)C)n(C)c3)c2c1`, 4.8 µM.
Still for that read-out and setting: the result for `COc1c2ccccc2c(-c2noc(C)c2C(=O)Nc2cc(C(=O)N(CCCN(C)C)CCCN(C)C)n(C)c2)c2ccccc12` reads 7.77 µM.

Broadly, the IC50 is the concentration that inhibits the measured activity by half.
